pIC50: −log10 of the molar value.
Tests used:
[1] = target: T1, PDE4D5: full-length human PDE4D5 isozyme (Homo sapiens, UniProt Q08499); experiment: PDE4 IC50 determination by Scintillation Proximity Assay (SPA), full-length PDE4D5; type: biochemical; conditions: cell lysate, [3H]cAMP SPA
T1 construct: made in house; host or cells: baculovirus infected insect cells (pFastBacHT)
Protocol: (§1) The enzyme was not purified from the cell lysates, so enzyme concentrations were not determined. Enzyme was stored in 50% glycerol at −20°.
(§2) IC50s were determined by Scintillation Proximity Assay (SPA). The principle of the assay is based on the fact that cAMP, the PDE4 substrate, binds weakly to Yittrium Silicate SPA beads, whereas AMP, the product of PDE4 hydrolysis binds strongly. Thus, the extent of PDE4 hydrolysis of a sample of [^3H]cAMP can be measured because only the [^3H]AMP produced by PDE4 hydrolysis will bind to the SPA beads and produce a scintillation signal.
(§3) In addition to the compound dilutions, each assay plate contained control wells with 1 μl of DMSO (to define 0% enzyme inhibition) or 1 μl of 200 μM roflumilast (to define 100% enzyme inhibition). Using a Beckman FX robot, 10 μl of [^3H] cAMP (Amersham TRK559) at […] in assay buffer (50 mM Tris, pH 7.5; 8.3 mM MgCl; 1.7 mM EGTA; 0.01% BSA) was transferred to each assay well. Next, 10 μl of PDE4 enzyme in assay buffer was added and the plates were shaken for 30 s. at 1000 rpm to start the cAMP hydrolysis reaction. The concentrations of enzyme used were: PDE4B, 80 ng/ml; PDE4D, 4 ng/ml; PDE4B2, 2.5 μl of 50% glycerol stock/ml; PDE4D5 0.083 μl of 50% glycerol stock/ml. Assay plates were covered and incubated for 30 min. at 30° C. Reactions were stopped by robotic addition of 10 μl of 5 mg/ml SPA beads (Amersham RPNQ0013) in 18 mM ZnSO4. The assay plates were covered with clear plastic film, centrifuged for 1 min. at 1000 RPM to settle the SPA beads, and counted using a Wallac TriLux scintillation counter. IC50's were calculated from the raw assay data by non-linear regression curve fitting using the Assay Explorer software package from MDL.

[2] = test system: TNF-α release from whole blood cultures stimulated with LPS; experiment: IC50 by TNF alpha production upon stimulation of whole blood cultures with LPS; type: cell-based; conditions: human whole blood (buffy coat) culture, 100 ng/ml LPS, 4 hours; read-out: h TNFα IC50
Protocol: Compounds were assayed to generate IC50 numbers based on the inhibition of TNF-α release from whole blood cultures, using the following assay protocol (see Table 5 for compounds tested and results). Inhibition of PDE4B results in the inhibition of TNF-α release by whole blood cultures stimulated with lipopolysaccharide (LPS). The measurement of TNF-α release was used to assess compounds as PDE4B inhibitors.
Compounds were provided in DMSO at 20 mM and 2 μl per well was added to one row of a dilution plate. Added 98 μl of RPMI 1640 media with 2.5% heat inactivated FBS to each well containing compound. The same media with 2% DMSO was prepared and 60 μl was added to each of the empty wells in the dilution plate. The compound was serially diluted 1:3 (30 μl to 60 μl of media) for a total of 8 concentrations per compound. Wells were also prepared with 50 μM roflumilast and piclamilast as 100% inhibition controls, and 2% DMSO in media was used as 0% inhibition control. A 20 μl aliquot of each sample was transferred to an assay plate in duplicate.
Human buffy coat was obtained from the Stanford Medical School Blood Center and diluted with 7 volumes of RPMI 1640 media with 1% penicillin/streptomycin and 2.5% heat inactivated FBS. A 160 μl aliquot of the diluted blood was added to each well of the assay plates, mixed and incubated for 1 hour at 37° C. in 5% CO2. LPS (Sigma catalog number L2637) that had been diluted to 1 mg/ml in PBS and stored as 20 μl aliquots at −20° C. was thawed and diluted 1000× to 1 μg/ml. A 20 μl aliquot of this was added to each sample (final concentration 100 ng/ml LPS) after the 1 hour incubation. A background sample was prepared without addition of LPS as well. The samples were mixed on a shaker for one minute at 900 RPM and incubated for 4 hours at 37° C. in 5% CO2. The plates were then put on a shaker for one minute at 900 RPM, followed by centrifuging at 100×g for 10 minutes, deceleration setting of 5. The top 75 μl of supernatant was carefully pipetted to a new plate and frozen at −20° C.
A 50 μl aliquot of incubation buffer (Biosource International Immunoassay Kit:Human TNF-α catalog number KHC3011) was added to each well of a plate coated with monoclonal antibody specific for hTNF-α (Biosource kit). The supernatant blood samples were thawed and a 50 μl aliquot along with 50 μl of diluent buffer (Biosource kit) were added to incubation buffer and the samples were incubated for 2 hours at room temperature. The samples were washed 4 times with 300 μl/well wash buffer (Biosource kit). A 100 μl aliquot of biotinylated anti-TNFalpha (Biosource kit) was added and the samples incubated for 1 hour at room temperature. The samples were washed 4 times with 300 μl/well wash buffer. A 100 μl aliquot of Streptavidin-HRP solution (BioSource kit) was added and the samples incubated for 30 minutes at room temperature. The samples were washed 4 times with 300 μl/well wash buffer. A 100 μl aliquot of Chromagen (Biosource kit) was added and the samples incubated in the dark for 30 minutes. A 100 μl aliquot of stop solution (2N H2SO4) was added to each sample and samples were read at 450 nm on a WallacVictor for 0.1 sec/well.

[3] = target: T2, PDE4B2: full-length human PDE4B2 isozyme (Homo sapiens, UniProt Q07343); experiment: PDE4 IC50 determination by Scintillation Proximity Assay (SPA), full-length PDE4B2; type: biochemical; conditions: cell lysate, [3H]cAMP SPA
T2 construct: made in house; host or cells: baculovirus infected insect cells (pFastBacHT)
T2 sequence (Q07343 with tags, fused parts or gaps isoform Q07343-2): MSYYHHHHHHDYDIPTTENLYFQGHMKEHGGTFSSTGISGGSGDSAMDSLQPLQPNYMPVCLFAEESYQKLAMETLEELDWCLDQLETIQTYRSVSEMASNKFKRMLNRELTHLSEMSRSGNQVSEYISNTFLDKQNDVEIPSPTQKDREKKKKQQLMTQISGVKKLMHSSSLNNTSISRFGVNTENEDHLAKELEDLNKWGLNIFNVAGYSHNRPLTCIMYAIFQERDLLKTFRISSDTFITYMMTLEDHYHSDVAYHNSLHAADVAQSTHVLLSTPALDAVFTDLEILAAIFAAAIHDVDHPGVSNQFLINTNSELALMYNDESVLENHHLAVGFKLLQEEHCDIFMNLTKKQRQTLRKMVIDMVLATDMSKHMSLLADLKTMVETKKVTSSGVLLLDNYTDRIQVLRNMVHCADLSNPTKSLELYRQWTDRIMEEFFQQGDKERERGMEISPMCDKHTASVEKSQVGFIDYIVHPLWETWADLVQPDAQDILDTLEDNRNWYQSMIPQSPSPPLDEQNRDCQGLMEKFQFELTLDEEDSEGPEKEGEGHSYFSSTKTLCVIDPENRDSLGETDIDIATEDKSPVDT
Protocol: as §1, §2, §3

[4] = target: T3, PDE4B: catalytic domain of human PDE4B from S152-S528 (Homo sapiens, UniProt Q07343); experiment: PDE4 IC50 determination by Scintillation Proximity Assay (SPA), PDE4B catalytic domain; type: biochemical; conditions: [3H]cAMP SPA, 30 min at 30° C.
T3 construct: The catalytic domain of human PDE4B from S152-S528; His6 (N, cleaved yes); thrombin cleavage site (N, cleaved yes); made in house; host or cells: E. coli BL21 (DE3) RIL
T3 sequence (Q07343 324-700): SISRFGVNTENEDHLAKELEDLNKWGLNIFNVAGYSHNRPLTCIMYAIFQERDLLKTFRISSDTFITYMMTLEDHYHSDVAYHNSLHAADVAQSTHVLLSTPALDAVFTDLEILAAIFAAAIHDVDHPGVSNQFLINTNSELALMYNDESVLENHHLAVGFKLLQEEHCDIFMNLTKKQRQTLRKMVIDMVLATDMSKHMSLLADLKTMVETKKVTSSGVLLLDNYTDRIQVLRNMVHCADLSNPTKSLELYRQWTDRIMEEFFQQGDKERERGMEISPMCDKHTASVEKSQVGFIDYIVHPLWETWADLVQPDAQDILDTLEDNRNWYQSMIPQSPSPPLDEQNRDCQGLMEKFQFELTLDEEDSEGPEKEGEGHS
Protocol: as §2
Enzyme was stored in 50% glycerol at −20°.
as §3

T1 sequence (Q08499 with tags, fused parts or gaps isoform Q08499-6): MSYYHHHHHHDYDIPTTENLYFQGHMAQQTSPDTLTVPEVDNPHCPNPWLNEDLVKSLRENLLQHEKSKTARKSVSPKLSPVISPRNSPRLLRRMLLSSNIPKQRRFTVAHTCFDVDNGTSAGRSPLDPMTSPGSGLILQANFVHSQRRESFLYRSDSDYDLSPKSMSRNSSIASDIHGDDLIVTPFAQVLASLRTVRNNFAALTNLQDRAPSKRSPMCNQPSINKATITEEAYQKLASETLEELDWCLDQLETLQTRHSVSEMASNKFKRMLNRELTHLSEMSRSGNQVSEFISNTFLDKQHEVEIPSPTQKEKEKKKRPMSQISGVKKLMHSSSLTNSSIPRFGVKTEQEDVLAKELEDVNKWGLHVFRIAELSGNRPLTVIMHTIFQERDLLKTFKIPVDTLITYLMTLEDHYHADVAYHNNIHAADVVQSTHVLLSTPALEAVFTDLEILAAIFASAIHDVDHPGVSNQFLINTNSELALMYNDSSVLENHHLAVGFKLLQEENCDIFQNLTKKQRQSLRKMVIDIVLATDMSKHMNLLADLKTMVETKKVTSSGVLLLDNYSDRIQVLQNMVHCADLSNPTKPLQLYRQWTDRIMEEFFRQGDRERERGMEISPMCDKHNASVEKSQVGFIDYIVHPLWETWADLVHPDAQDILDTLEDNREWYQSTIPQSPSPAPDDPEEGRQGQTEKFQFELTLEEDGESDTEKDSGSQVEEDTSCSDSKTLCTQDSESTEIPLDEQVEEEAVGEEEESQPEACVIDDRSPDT

| pIC50 [1] | pIC50 [2] | pIC50 [3] | pIC50 [4] | Structure (SMILES) |
| --- | --- | --- | --- | --- |
| > 5.00 | ≥ 5.00 | > 5.00 | – | CCOc1ccc2ccccc2c1C(=O)n1cc(-c2ccc(OC)c(OC3CCCC3)c2)c2cccnc21 [Compound 119, [3-(3-Cyclopentyloxy-4-methoxy-phenyl)-pyrrolo[2,3-b]pyridin-1-yl]-(2-ethoxy-naphthalen-1-yl)-methanone] |
| > 5.00 | ≥ 5.00 | > 5.00 | > 5.00 | COc1ccc(-c2cn(S(=O)(=O)Cc3ccccc3)c3ncccc23)cc1OC [Compound 8, 3-(3,4-dimethoxy-phenyl)-1-phenylmethanesulfonyl-1H-pyrrolo[2,3-b]pyridine] |
| > 5.00 | ≥ 5.00 | > 5.00 | > 5.00 | COc1ccc(-c2cn(S(=O)(=O)c3cccc4cnccc34)c3ncccc23)cc1OC [Compound 14, 5-[3-(3,4-Dimethoxy-phenyl)-pyrrolo[2,3-b]pyridine-1-sulfonyl]-isoquinoline] |
| > 5.00 | ≥ 5.00 | > 5.00 | > 5.00 | COc1ncc(-c2cn(S(=O)(=O)c3cccc4cccnc34)c3ncccc23)cn1 [Compound 43, 8-[3-(2-methoxy-pyrimidin-5-yl)-pyrrolo[2,3-b]pyridine-1-sulfonyl]-quinoline] |
| > 5.00 | < 5.00 | > 5.00 | – | COc1ccc(-c2cnc3[nH]cc(C#Cc4cccc(C(=O)O)c4)c3c2)cc1OC [Compound 140, 3-[5-(3,4-Dimethoxy-phenyl)-1H-pyrrolo[2,3-b]pyridin-3-ylethynyl]-benzoic acid] |
| > 5.00 | ≥ 5.00 | > 5.00 | – | COc1ccc(-c2cccc3c2ccn3S(=O)(=O)c2cccc3cccnc23)cc1OC [Compound 131, 8-[4-(3,4-Dimethoxy-phenyl)-indole-1-sulfonyl]-quinoline] |
| > 5.00 | ≥ 5.00 | > 5.00 | – | CCOc1ccc2ccccc2c1C(=O)n1cc(-c2cccc(C(=O)OCc3ccccc3)c2)c2cccnc21 [Compound 87, 3-[1-(2-Ethoxy-naphthalene-1-carbonyl)-1H-pyrrolo[2,3-b]pyridin-3-yl]-benzoic acid benzyl ester] |
| > 5.00 | ≥ 5.00 | > 5.00 | – | COc1ccc(-c2cnc3c(ccn3S(=O)(=O)c3ccccc3)c2)cc1OC [Compound 132, 1-Benzenesulfonyl-5-(3,4-dimethoxy-phenyl)-1H-pyrrolo[2,3-b]pyridine] |
| > 5.00 | ≥ 5.00 | > 5.00 | – | COc1ccc(-c2cn(S(=O)(=O)c3cccc4cccnc34)c3ccc(Cl)cc23)cc1OC [Compound 93, 8-[3-(3,4-Dimethoxy-phenyl)-5-chloro-indole-1-sulfonyl]-quinoline] |
| > 5.00 | ≥ 5.00 | > 5.00 | – | CCOc1ccc2ccccc2c1C(=O)n1cc(-c2ccc(S(C)(=O)=O)cc2)c2cccnc21 [Compound 84, (2-Ethoxy-naphthalen-1-yl)-[3-(4-methanesulfonyl-phenyl)-pyrrolo[2,3-b]pyridin-1-yl]-methanone] |
| > 5.00 | ≥ 5.00 | > 5.00 | – | CCOc1ccc2ccccc2c1C(=O)n1cc(-c2cccc(C(N)=O)c2)c2cccnc21 [Compound 121, 3-[1-(2-Ethoxy-naphthalene-1-carbonyl)-1H-pyrrolo[2,3-b]pyridin-3-yl]-benzamide] |
| > 5.00 | ≥ 5.00 | > 5.00 | – | COc1ccc(-c2cccc3[nH]ccc23)cc1OC [Compound 128, 4-(3,4-Dimethoxy-phenyl)-1H-indole] |
| > 5.00 | ≥ 5.00 | > 5.00 | – | COc1ccc2c(c1)c(-c1ccc(OC)c(OC)c1)cn2S(=O)(=O)c1cccc2cccnc12 [Compound 92, 8-[3-(3,4-Dimethoxy-phenyl)-5-methoxy-indole-1-sulfonyl]-quinoline] |
| > 5.00 | ≥ 5.00 | > 5.00 | – | COc1ccc(-c2ccc3c(ccn3S(=O)(=O)c3cccc4cccnc34)c2)cc1OC [Compound 130, 8-[5-(3,4-Dimethoxy-phenyl)-indole-1-sulfonyl]-quinoline] |
| > 5.00 | ≥ 5.00 | > 5.00 | – | COc1ccc(-c2cn(C(=O)c3ccc(C#N)cc3)c3ncccc23)cc1OC [Compound 106, 4-[3-(3,4-Dimethoxy-phenyl)-pyrrolo[2,3-b]pyridine-1-carbonyl]-benzonitrile] |
| > 5.00 | ≥ 5.00 | > 5.00 | – | COc1ccc(-c2ccc3[nH]ccc3c2)cc1OC [Compound 129, 5-(3,4-Dimethoxy-phenyl)-1H-indole] |
| > 5.00 | ≥ 5.00 | > 5.00 | – | CCOc1ccc2ccccc2c1C(=O)n1cc(-c2cccc(NS(C)(=O)=O)c2)c2cccnc21 [Compound 122, N-{3-[1-(2-Ethoxy-naphthalene-1-carbonyl)-1H-pyrrolo[2,3-b]pyridin-3-yl]-phenyl}-methanesulfonamide] |
| > 5.00 | ≥ 5.00 | > 5.00 | – | CCOc1ccc2ccccc2c1C(=O)n1cc(-c2cccc(S(C)(=O)=O)c2)c2cccnc21 [Compound 86, (2-Ethoxy-naphthalen-1-yl)-[3-(3-methanesulfonyl-phenyl)-pyrrolo[2,3-b]pyridin-1-yl]-methanone] |
| > 5.00 | < 5.00 | > 5.00 | – | COC(=O)c1cccc(C#Cc2c[nH]c3ncc(-c4ccc(OC)c(OC)c4)cc23)c1 [Compound 139, 3-[5-(3,4-Dimethoxy-phenyl)-1H-pyrrolo[2,3-b]pyridin-3-ylethynyl]-benzoic acid methyl ester] |
| > 5.00 | ≥ 5.00 | > 5.00 | – | COc1ccc(-c2cnc3[nH]cc(C#Cc4ccccc4)c3c2)cc1OC [Compound 138, 5-(3,4-Dimethoxy-phenyl)-3-phenylethynyl-1H-pyrrolo[2,3-b]pyridine] |

Source: patent US7605168B2 (Plexxikon, Inc., priority 2004, dated 2009)
